{"source": "patent US20110059986A1", "about": "“INTERMITTENT DOSING REGIMEN FOR OVERWEIGHT AND OBESE SUBJECTS” (priority 2004, published 2011)", "type_in_all_cases": "in vivo", "key": {"obese Beagle dogs [1]": {"tested_on": "obese Beagle dogs", "assay": "Efficacy study with continuous administration of mitratapide during 8 weeks", "settings": "oral", "description": "FIG. 1 is a graph displaying the results of an efficacy study wherein the apoB secretion/MTP inhibitor mitratapide was administered during 8 weeks to a group of obese Beagle dogs. The four curves illustrate the effect on body weight by plotting the ‘(%) body weight relative to the weight at the start’ when mitratapide was administered with a dosage of 0 mg per kg body weight (A curve), 0.16 mg per kg body weight (B curve), 0.31 mg per kg body weight (C curve) and 0.63 mg per kg body weight in function of the duration of the study.\nThe efficacy of the apoB secretion/MTP inhibitor mitratapide for the reduction of body weight was studied in a blind, randomised study with 4 parallel groups of 6 dogs each. Three groups were treated orally with three different doses of mitratapide and one group was treated orally with the vehicle and served as a placebo group. The vehicle solution contained the same ingredients as the test formulations with omission of the test substance mitratapide.\nThe treatment groups were:\nplacebo group A treated orally with vehicle\ngroup B treated orally with 0.16 mg mitratapide per kg body weight\ngroup C treated orally with 0.31 mg mitratapide per kg body weight\ngroup D treated orally with 0.63 mg mitratapide per kg body weight\nThe test subjects were healthy, male Beagle dogs with a body weight of 13.6 to 22.6 kg at the start of the experiment and between 1 and 8 years old. All dogs were treated orally using a 5 ml syringe, once daily, in the morning for a period of 8 weeks (56 days) depending on their body weight. Body weight was measured once weekly on days 0, 7, 14, 21, . . . up to day 56. The volume of test formulation was 1 ml per 4 kg body weight. The test formulation was an aqueous 10% hydroxypropyl-β-cyclodextrin solution containing no mitratapide, 0.63 mg mitratapide per ml, 1.25 mg mitratapide per ml or 2.5 mg mitratapide per ml. Each test subject had free access (in volume and time) to commercial dog feed (Bento Kronen Professional Power) and water during the 8 week study. […]"}, "obese Beagle dogs [2]": {"tested_on": "obese Beagle dogs", "assay": "Comparison of 3 w-2 w-3 w and 4 w-4 w-4 w dosing regimen", "settings": "0.63 mg/kg oral gavage once daily", "description": "Thirty two healthy obese Beagle dogs of both sexes were included in a study of two different intermittent treatment regimens: a 3 w-2 w-3 w regimen and a 4 w-4 w-4 w regimen. At the start of the study, the dogs weighed between 12.5 and 26 kg which was considered as being more than 20% higher than the ideal body weight. The study was conducted in four groups, two treated groups containing 10 obese Beagle dogs and one placebo group containing 12 obese Beagle dogs. This placebo group of 12 dogs was subdivided in two sets of 6 dogs. One placebo group followed the 3 w-2 w-3 w regimen and the other placebo group the 4 w-4 w-4 w regimen.\nThe test compound mitratapide was provided as a polyethylene glycol 400 (PEG 400) solution comprising 5 mg mitratapide per ml. The test solution was administered once daily in the morning by oral gavage. The volume of test formulations was 0.125 ml per kg body weight so that mitratapide was administered with a dosage of 0.63 mg/kg body weight. The body weight was measured weekly during the treatment periods to adjust the amount of test formulation. The placebo groups received water as the test formulation. Each test subject had free access (in volume and time) to commercial dog feed (Bento Kronen premium Regular dog pellets) during the first administration period. The first administration period was followed by a period during which administration of mitratapide was withheld. At the same time, the dogs were put on a maintenance diet having a caloric content equal to their caloric expenditure. […] At the start of the second administration period, the dogs were again administered a mitratapide solution with a dosage of 0.63 mg/kg body weight. The dogs were kept on the same maintenance diet as during the previous period. All dogs had free access to drinking water throughout the entire study. Body weight of each test animal was measured weekly on days 0, 7, 14, 21 and so on till day 84. The effect on body weight for each of the four dosage studies is plotted in FIG. 3. […] The reduction of body weight of the two placebo groups was less than 2% after 84 days."}, "obese Beagle dogs [3]": {"tested_on": "obese Beagle dogs", "assay": "4 w-4 w-4 w intermittent dosing regimen study", "settings": "4 w-4 w-4 w regimen, 0.63 mg/kg oral once daily", "description": "Mitratapide was administered for a first period of four weeks at a dosage of 0.63 mg/kg body weight, withheld for four weeks and again administered for four weeks at a dosage of 0.63 mg/kg body weight. At day 29, the feeding was restricted from ad libitum access to food, to a maintenance diet having a caloric content equal to the caloric expenditure of the test subject.\nThe effect of a 4 w-4 w-4 w intermittent dosing regimen on 15 obese Beagle dogs, with a body weight of 16% or more above optimal body weight, was studied. The dogs were treated with mitratapide oral solution at a daily single dose of 0.63 mg/kg body weight for two periods of 28 consecutive days (4 weeks) with an intermediate period of 28 consecutive days without treatment.\nThe test formulation comprising mitratapide was an aqueous 10% hydroxypropyl-β-cyclodextrin solution containing 2.5 mg mitratapide per ml and was administered once daily in an amount of 1 ml per 4 kg body weight. The daily dose was mixed into a small portion of feed and presented to the dog. The rest of the feed was only provided after this portion was consumed. […] The test solution comprising mitratapide was no longer administered and the body weight of the animals was further monitored during the follow-up procedure ending on day 112. […] Body weight of each test animal was measured on days 0, 14, 28, 42, 56, 84 and 112. […]"}}, "data": [{"molecule": "CCC(C)n1ncn(-c2ccc(N3CCN(c4ccc(OCC5COC(CSc6nncn6C)(c6ccc(Cl)cc6)O5)cc4)CC3)cc2)c1=O", "note": "(stereo not drawn) [mitratapide, (−)-[2S-[2α, 4α(S*)]]-4-[4-[4-[4-[[2-(4-chlorophenyl)-2-[[(4-methyl-4H-1,2,4-triazol-3-yl)thio]methyl]-1,3-dioxolan-4-yl]methoxy]-phenyl]-1-piperazinyl]phenyl]-2,4-dihydro-2-(1-methylpropyl)-3H-1,2,4-triazol-3-one]", "values": [{"measurement": "effect on body weight at 0.63 mg/kg compared with lower dose", "setting": "obese Beagle dogs [1]; 0.63 mg/kg once daily for 8 weeks, free access to feed", "value": "more effective in reducing body weight"}, {"measurement": "course of body weight reduction (levelling off)", "setting": "obese Beagle dogs [1]; 0.63 mg/kg once daily, continuous for 8 weeks (curve D)", "value": "started to level off after three weeks"}, {"measurement": "daily dosage necessary to decrease body weight", "setting": "obese Beagle dogs [1]; once daily for 8 weeks (56 days), free access to feed, doses 0.16, 0.31, 0.63 mg/kg tested", "value": "at least 0.31 mg/kg"}, {"measurement": "course of body weight reduction (levelling off)", "setting": "obese Beagle dogs [2]; 3 w-2 w-3 w and 4 w-4 w-4 w regimens", "value": "no body weight reduction levelling off effect was observed"}, {"measurement": "mean effect on body weight reduction", "setting": "obese Beagle dogs [2]; 3 w-2 w-3 w regimen, day 56", "value": 11, "unit": "%"}, {"measurement": "mean effect on body weight reduction", "setting": "obese Beagle dogs [2]; 4 w-4 w-4 w regimen, day 84", "value": 13, "unit": "%"}, {"measurement": "mean reduction of body weight", "setting": "obese Beagle dogs [3]; maintenance diet from the second period, after 84 days", "value": 9, "unit": "%"}, {"measurement": "course of body weight reduction (levelling off)", "setting": "obese Beagle dogs [3]; two treatment periods", "value": "no body weight reduction levelling off effect was observed"}]}]}
